Consider 8 compounds from US8242274B2, “Triazolopyridine kinase inhibitors useful for the treatment of degenerative and inflammatory diseases” (Galapagos NV, priority 2008, dated 2012).

A short description of series [1]: Microsomal stability, rat. In kind it is in vitro ADME. The conditions noted are these: rat liver microsomes, 3 μM compound, 37° C. As to the method: A 10 mM stock solution of compound in DMSO was diluted 1000 fold in a 182 mM phosphate buffer pH 7.4 in a 96 deep well plate (Greiner, Cat no. 780285) and pre-incubated at 37° C.
40 μL of deionised water was added to a well of a polypropylene Matrix 2D barcode labelled storage tube (Thermo Scientific) and pre-incubated at 37° C.
A Glucose-6-phosphate-dehydrogenase (G6PDH) working stock solution was prepared in 182 mM phosphate buffer pH7.4 and placed on ice before use. A co-factor containing MgCl2, glucose-6-phosphate and NADP+ was prepared in deionised water and placed on ice before use.
A final working solution containing liver microsomes (Xenotech) of a species of interest (human, mouse, rat, dog), previously described G6PDH and co-factors was prepared and this mix was incubated for no longer than 20 minutes at room temperature.
30 μL of the pre-heated compound dilution was added to 40 μL of pre-heated water in the Matrix tubes and 30 μL of the microsomal mix was added. Final reaction concentrations were 3 μM compound, 1 mg microsomes, 0.4 U/mL GDPDH, 3.3 mM MgCl2, 3.3 mM glucose-6-phosphate and 1.3 mM NADP+.
To measure percentage remaining of compound at time zero MeOH or ACN was added (1:1) to the well before adding the microsomal mix. The plates were sealed with Matrix Sepra Seals™ (Matrix, Cat. No. 4464) and shaken for a few seconds ensure complete mixing of all components.
The samples which were not stopped are incubated at 37° C., 300 rpm and after 1 hour of incubation the reaction was stopped with MeOH or ACN (1:1).
After stopping the reaction the samples were mixed and placed on ice for 30 min to precipitate the proteins. The plates were then centrifuged 30 min at 1200 rcf at 4° C. and the supernatant was transferred to a 96 v-bottom PP plate (Greiner, 651201) for analysis on LCMS.
These plates were sealed with sealing mats (MA96RD-04S) of www.kinesis.co.uk and samples were measured at room temperature on LCMS (ZQ 1525 from Waters) under optimized conditions using Quanoptimize to determine the appropriate mass of the parent molecule.
The samples were analyzed on LCMS with a flow rate of 1 mL/min. Solvent A was 15 mM ammonia and solvent B was methanol or acetonitrile, depending on the stop solution used. The samples were run under positive ion spray on an XBridge C18 […] (2.1×30 mm) column, from Waters.
Peak area from the parent compound at time 0 was considered to be 100% remaining. The percentage remaining after 1 hour incubation was calculated from time 0 and was calculated as the percentage remaining. The solubility of the compound in the final test concentration in buffer is inspected by microscope and results are reported.
The data on microsomal stability are expressed as a percentage of the total amount of compound remaining after 60 minutes.

Series [2] addresses T1, Recombinant human JAK1 catalytic domain (Homo sapiens, UniProt P23458).
T1 construct: Recombinant human JAK1 catalytic domain (amino acids 850-1154; catalog number 08-144); purchased Carna Biosciences 08-144
The series is described as follows: JAK1 inhibition assay. In kind it is biochemical. The note with it: semi-quantitative score. As to the method:
Recombinant human JAK1 catalytic domain (amino acids 850-1154; catalog number 08-144) was purchased from Carna Biosciences. 10 ng of JAK1 was incubated with 12.5 μg polyGT substrate (Sigma catalog number P0275) in kinase reaction buffer (15 mM Tris-HCl pH 7.5, 1 mM DTT, 0.01% Tween-20, 10 mM MgCl2, 2 μM non-radioactive ATP, 0.25 μCi 33P-gamma-ATP (GE Healthcare, catalog number AH9968) final concentrations) with or without 5 μL containing test compound or vehicle (DMSO, 1% final concentration), in a total volume of 25 μL, in a polypropylene 96-well plate (Greiner, V-bottom). After 45 min at 30° C., reactions were stopped by adding of 25 μL/well of 150 mM phosphoric acid. All of the terminated kinase reaction was transferred to prewashed (75 mM phosphoric acid) 96 well filter plates (Perkin Elmer catalog number 6005177) using a cell harvester (Perkin Elmer). Plates were washed 6 times with 300 μL per well of a 75 mM phosphoric acid solution and the bottom of the plates was sealed. 40 μL/well of Microscint-20 was added, the top of the plates was sealed and readout was performed using the Topcount (Perkin Elmer). Kinase activity was calculated by subtracting counts per minute (cpm) obtained in the presence of a positive control inhibitor (10 μM staurosporine) from cpm obtained in the presence of vehicle. The ability of a test compound to inhibit this activity was determined as: Percentage inhibition=((cpm determined for sample with test compound present−cpm determined for sample with positive control inhibitor)divided by(cpm determined in the presence of vehicle−cpm determined for sample with positive control inhibitor))*100%.
Dose dilution series were prepared for the compounds enabling the testing of dose-response effects in the JAK1 assay and the calculation of the IC50 for each compound. Each compound was routinely tested at concentration of 20 μM followed by a 1/3 serial dilution, 8 points (20 μM-6.67 μM-2.22 μM-740 nM-247 nM-82 nM-27 nM-9 nM) in a final concentration of 1% DMSO.

Series [3] deals with T2, Recombinant human JAK2 catalytic domain (Homo sapiens, UniProt O60674).
T2 construct: Recombinant human JAK2 catalytic domain (amino acids 808-1132; catalog number PV4210); purchased Invitrogen PV4210
Description: JAK2 inhibition assay. In kind it is biochemical. The note with it: semi-quantitative score. As to the method: Recombinant human JAK2 catalytic domain (amino acids 808-1132; catalog number PV4210) was purchased from Invitrogen. 0.025 mU of JAK2 was incubated with 2.5 μg polyGT substrate (Sigma catalog number P0275) in kinase reaction buffer (5 mM MOPS pH 7.5, 9 mM MgAc, 0.3 mM EDTA, 0.06% Brij and 0.6 mM DTT, 1 μM non-radioactive ATP, 0.25 μCi 33P-gamma-ATP (GE Healthcare, catalog number AH9968) final concentrations) with or without 5 μL containing test compound or vehicle (DMSO, 1% final concentration), in a total volume of 25 μL, in a polypropylene 96-well plate (Greiner, V-bottom). After 90 min at 30° C., reactions were stopped by adding of 25 μL/well of 150 mM phosphoric acid. All of the terminated kinase reaction was transferred to prewashed (75 mM phosphoric acid) 96 well filter plates (Perkin Elmer catalog number 6005177) using a cell harvester (Perkin Elmer). Plates were washed 6 times with 300 μL per well of a 75 mM phosphoric acid solution and the bottom of the plates was sealed. 40 μL/well of Microscint-20 was added, the top of the plates was sealed and readout was performed using the Topcount (Perkin Elmer). Kinase activity was calculated by subtracting counts per minute (cpm) obtained in the presence of a positive control inhibitor (10 μM staurosporine) from cpm obtained in the presence of vehicle. The ability of a test compound to inhibit this activity was determined as: Percentage inhibition=((cpm determined for sample with test compound present−cpm determined for sample with positive control inhibitor) divided by (cpm determined in the presence of vehicle−cpm determined for sample with positive control inhibitor))*100%.
Dose dilution series were prepared for the compounds enabling the testing of dose-response effects in the JAK2 assay and the calculation of the IC50 for each compound. Each compound was routinely tested at concentration of 20 μM followed by a 1/3 serial dilution, 8 points (20 μM-6.67 μM-2.22 μM-740 nM-247 nM-82 nM-27 nM-9 nM) in a final concentration of 1% DMSO.

Molecules are shown by their SMILES.

T1 sequence (P23458 850-1154): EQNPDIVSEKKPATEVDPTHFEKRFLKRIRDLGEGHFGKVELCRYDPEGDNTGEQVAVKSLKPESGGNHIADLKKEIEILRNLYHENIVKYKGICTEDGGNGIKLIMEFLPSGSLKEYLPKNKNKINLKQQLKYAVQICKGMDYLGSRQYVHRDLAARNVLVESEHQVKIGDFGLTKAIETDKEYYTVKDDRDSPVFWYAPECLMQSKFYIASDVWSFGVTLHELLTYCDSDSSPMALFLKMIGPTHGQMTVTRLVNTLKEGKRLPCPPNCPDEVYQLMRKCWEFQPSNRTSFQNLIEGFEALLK
T2 sequence (O60674 808-1132): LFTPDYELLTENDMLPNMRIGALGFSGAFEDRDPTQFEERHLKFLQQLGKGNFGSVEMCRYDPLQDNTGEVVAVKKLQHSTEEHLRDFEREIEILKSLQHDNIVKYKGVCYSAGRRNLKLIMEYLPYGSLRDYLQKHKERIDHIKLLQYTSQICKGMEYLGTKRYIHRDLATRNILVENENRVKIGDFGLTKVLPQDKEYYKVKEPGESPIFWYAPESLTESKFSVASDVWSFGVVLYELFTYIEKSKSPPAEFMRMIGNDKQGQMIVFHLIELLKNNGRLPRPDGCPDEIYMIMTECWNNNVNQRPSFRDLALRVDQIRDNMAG

For `CC(=O)Nc1ccc(COc2ccc(-c3cccc4nc(NC(=O)C5CC5)nn34)cc2)cc1` [Compound 92, N-(5-(4-(4-acetamidobenzyloxy)phenyl)-[1,2,4]triazolo[1,5-a]pyridin-2-yl)cyclopropanecarboxamide], the “Microsomal stability Rat (%), compound remaining after 60 minutes” value in series [1] is on record as 23.6%. In addition, in series [2], the IC50 is 0.1 to 100 nM.

On to `N#Cc1ccc(COc2ccc(-c3cccc4nc(NC(=O)C5CC5)nn34)cc2)cn1` [Compound 176, N-(5-(4-((6-cyanopyridin-3-yl)methoxy)phenyl)-[1,2,4]triazolo[1,5-a]pyridin-2-yl)cyclopropanecarboxamide], for which the “Microsomal stability Rat (%), compound remaining after 60 minutes” value in series [1] stood at 90.21%. For the same compound, the IC50 in series [3] lay in the range of 1 to 100 nM; in series [2], 0.1 to 100 nM.

Regarding `O=C(Nc1nc2cccc(-c3ccc(NCc4ccccc4)cc3)n2n1)C1CC1` [Compound 72, N-(5-(4-(benzylamino)phenyl)-[1,2,4]triazolo[1,5-a]pyridin-2-yl)cyclopropanecarboxamide], in series [1], the “Microsomal stability Rat (%), compound remaining after 60 minutes” value is on record as 2.2%. Also, the values for the IC50 in series [3] and in series [2] were 1 to 100 nM and 0.1 to 100 nM, respectively.

As to `O=C(Nc1nc2cccc(-c3ccc(OCc4cccnc4)cc3)n2n1)C1CC1` [Compound 36, N-(5-(4-(pyridin-3-ylmethoxy)phenyl)-[1,2,4]triazolo[1,5-a]pyridin-2-yl)cyclopropanecarboxamide], the “Microsomal stability Rat (%), compound remaining after 60 minutes” value in series [1] amounted to 72.41%. The half-inhibitory concentration (IC50) in series [3] lay in the range of 1 to 100 nM; in series [2], 0.1 to 100 nM.

With `O=C(Nc1nc2cccc(-c3ccc(OCc4ccccc4)nc3)n2n1)C1CC1` [Compound 57, Cyclopropanecarboxylic acid [5-(6-benzyloxy-pyridin-3-yl)-[1,2,4]triazolo[1,5-a]pyridin-2-yl]-amide], the “Microsomal stability Rat (%), compound remaining after 60 minutes” value in series [1] was 34.5%. In addition, the half-maximal inhibitory concentration (IC50) in series [3] was 1 to 100 nM; in series [2] it was 0.1 to 100 nM.

`O=C(Nc1nc2cccc(-c3ccc(OCc4ccccc4)cc3)n2n1)C1CC1` [Compound 12, N-(5-(4-(benzyloxy)phenyl)-[1,2,4]triazolo[1,5-a]pyridin-2-yl)cyclopropanecarboxamide]: the “Microsomal stability Rat (%), compound remaining after 60 minutes” value in series [1] is listed as 94%. Moreover, the IC50 in series [3] was in the range of 1 to 100 nM; in series [2] it was 0.1 to 100 nM.

On to `O=C(Nc1nc2cccc(-c3ccc(OCc4ccc(C(F)(F)F)nc4)cc3)n2n1)C1CC1` [Compound 78, N-(5-(4-((6-(trifluoromethyl)pyridin-3-yl)methoxy)phenyl)-[1,2,4]triazolo[1,5-a]pyridin-2-yl)cyclopropanecarboxamide], for which the “Microsomal stability Rat (%), compound remaining after 60 minutes” value in series [1] was found to be 93.85%. The IC50 is 1 to 100 nM in series [3] and 0.1 to 100 nM in series [2].

As for `O=C(Nc1nc2cccc(-c3ccc(OCc4ccccn4)cc3)n2n1)C1CC1` [Compound 37, N-(5-(4-(pyridin-2-ylmethoxy)phenyl)-[1,2,4]triazolo[1,5-a]pyridin-2-yl)cyclopropanecarboxamide], in series [1], the “Microsomal stability Rat (%), compound remaining after 60 minutes” value is 79.47%. The IC50 in series [3] was 1 to 100 nM; in series [2], 0.1 to 100 nM.
